Source: patent US20100168125A1, “INDOLIZINES AND AZA-ANALOG DERIVATIVES THEREOF AS CNS ACTIVE COMPOUNDS” (priority 2007, published 2010)
pKi: −log10 of the molar value. Read-outs that look alike come from different tables or passages of the source.

Experiments:
human D4.4 receptor = biological target: T1, human D4.4 receptor (Homo sapiens, UniProt P21917); assay: radioligand binding with [^3H]spiperone, D4.4
T1 construct: expressed in transfected cells; host or cells: Chinese hamster ovary (CHO) cells, membranes
T1 sequence (P21917 1-419): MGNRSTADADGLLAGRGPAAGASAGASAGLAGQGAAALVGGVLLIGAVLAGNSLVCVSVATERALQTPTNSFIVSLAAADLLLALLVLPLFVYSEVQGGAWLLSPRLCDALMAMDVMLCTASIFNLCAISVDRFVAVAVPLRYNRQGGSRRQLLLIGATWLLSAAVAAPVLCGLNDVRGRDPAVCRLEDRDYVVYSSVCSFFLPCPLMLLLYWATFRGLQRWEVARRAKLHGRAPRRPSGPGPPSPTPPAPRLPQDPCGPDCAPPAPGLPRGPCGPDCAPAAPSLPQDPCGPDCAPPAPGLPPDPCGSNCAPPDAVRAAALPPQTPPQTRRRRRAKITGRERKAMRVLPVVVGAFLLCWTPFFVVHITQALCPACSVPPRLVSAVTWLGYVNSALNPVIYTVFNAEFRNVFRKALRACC
In short: (§1)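 Membranes from CHO cell lines expressing each human receptor subtype incubated with [^3H]spiperone. Test compounds spanned subnanomolar to micromolar concentrations in competition format.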

human D2short receptor = biological target: T2, human D2short receptor (Homo sapiens, UniProt P14416); assay: radioligand binding with [^3H]spiperone, D2short; details: read-out: Ki D2sh
T2 construct: expressed in transfected cells; host or cells: Chinese hamster ovary (CHO) cells, membranes
In short: as §1

5-HT2 receptor = biological target: T3, 5-HT2 receptor (Sus scrofa, UniProt P50129); assay: radioligand binding, porcine cortical membranes, [^3H]ketanserin
T3 construct: membrane preparations from porcine cortical material; from tissue; host or cells: porcine cerebral cortex membranes

human D2long receptor = biological target: T4, human D2long receptor (Homo sapiens, UniProt P14416); assay: radioligand binding with [^3H]spiperone, D2long; details: read-out: Ki D2lo
T4 construct: expressed in transfected cells; host or cells: Chinese hamster ovary (CHO) cells, membranes
In short: as §1

[1] = biological target: dopamine D2short receptor (Homo sapiens, UniProt P14416); assay: [^35S]GTPγS-incorporation assay, intrinsic activity
5-HT1A receptor = biological target: T5, 5-HT1A receptor (Sus scrofa, UniProt A0A4X1UTF5); assay: radioligand binding, porcine cortical membranes, [^3H]8-OH-DPAT and [^3H]WAY 100635
T5 construct: membrane preparations from porcine cortical material; from tissue; host or cells: porcine cerebral cortex membranes
T5 sequence (A0A4X1UTF5 1-422): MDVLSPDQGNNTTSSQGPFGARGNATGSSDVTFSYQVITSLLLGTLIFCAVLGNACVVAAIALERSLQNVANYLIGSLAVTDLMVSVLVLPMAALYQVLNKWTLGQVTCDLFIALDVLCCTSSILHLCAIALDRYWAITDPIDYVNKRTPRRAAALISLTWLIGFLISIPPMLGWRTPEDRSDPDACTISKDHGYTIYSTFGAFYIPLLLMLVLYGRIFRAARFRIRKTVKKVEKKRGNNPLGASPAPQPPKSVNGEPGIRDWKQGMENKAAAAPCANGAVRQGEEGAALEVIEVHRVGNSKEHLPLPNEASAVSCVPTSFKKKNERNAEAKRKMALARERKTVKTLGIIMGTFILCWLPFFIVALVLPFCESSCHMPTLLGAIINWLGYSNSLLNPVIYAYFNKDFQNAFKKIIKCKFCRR

human D3 receptor = biological target: T6, human D3 receptor (Homo sapiens, UniProt P35462); assay: radioligand binding with [^3H]spiperone, D3
T6 construct: expressed in transfected cells; host or cells: Chinese hamster ovary (CHO) cells, membranes
In short: as §1

[2] = [^3H]spiperone, CHO membranes, mean of 2 to 4 experiments
[3] = porcine cortical membranes, [^3H]ketanserin
[4] = read-out: D2short: [^35S]GTPγS intrinsic activity, % activity of quinpirol
[5] = read-out: D2short: [^35S]GTPγS intrinsic activity
[6] = ether alkylene linker compounds

T6 sequence (P35462 whole entry): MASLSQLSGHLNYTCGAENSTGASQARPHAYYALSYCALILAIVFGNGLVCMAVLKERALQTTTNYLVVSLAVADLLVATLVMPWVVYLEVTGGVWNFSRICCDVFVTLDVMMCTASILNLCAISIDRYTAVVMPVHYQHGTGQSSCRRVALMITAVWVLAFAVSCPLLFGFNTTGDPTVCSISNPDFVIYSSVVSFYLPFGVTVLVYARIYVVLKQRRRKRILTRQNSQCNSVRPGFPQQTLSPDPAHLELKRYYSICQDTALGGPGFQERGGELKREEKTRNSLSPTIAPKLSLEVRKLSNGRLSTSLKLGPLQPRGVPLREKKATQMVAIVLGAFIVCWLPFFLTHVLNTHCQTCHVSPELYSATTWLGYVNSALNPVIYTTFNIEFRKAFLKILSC
dopamine D2short receptor, sequence (P14416 1-414 isoform P14416-2): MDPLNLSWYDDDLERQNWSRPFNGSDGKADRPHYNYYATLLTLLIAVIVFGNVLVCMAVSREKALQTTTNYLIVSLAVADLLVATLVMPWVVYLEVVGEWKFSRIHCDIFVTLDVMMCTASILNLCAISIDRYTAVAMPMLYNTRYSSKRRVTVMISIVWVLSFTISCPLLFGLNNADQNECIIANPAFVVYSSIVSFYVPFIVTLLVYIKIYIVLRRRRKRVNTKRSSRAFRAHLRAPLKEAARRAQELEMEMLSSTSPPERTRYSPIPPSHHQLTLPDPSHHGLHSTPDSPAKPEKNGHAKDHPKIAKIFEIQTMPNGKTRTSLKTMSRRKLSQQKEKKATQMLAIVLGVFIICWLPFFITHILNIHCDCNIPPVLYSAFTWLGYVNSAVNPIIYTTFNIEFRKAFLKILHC
T2 sequence (P14416 1-414 isoform P14416-2): as above
T3 sequence (P50129 whole entry): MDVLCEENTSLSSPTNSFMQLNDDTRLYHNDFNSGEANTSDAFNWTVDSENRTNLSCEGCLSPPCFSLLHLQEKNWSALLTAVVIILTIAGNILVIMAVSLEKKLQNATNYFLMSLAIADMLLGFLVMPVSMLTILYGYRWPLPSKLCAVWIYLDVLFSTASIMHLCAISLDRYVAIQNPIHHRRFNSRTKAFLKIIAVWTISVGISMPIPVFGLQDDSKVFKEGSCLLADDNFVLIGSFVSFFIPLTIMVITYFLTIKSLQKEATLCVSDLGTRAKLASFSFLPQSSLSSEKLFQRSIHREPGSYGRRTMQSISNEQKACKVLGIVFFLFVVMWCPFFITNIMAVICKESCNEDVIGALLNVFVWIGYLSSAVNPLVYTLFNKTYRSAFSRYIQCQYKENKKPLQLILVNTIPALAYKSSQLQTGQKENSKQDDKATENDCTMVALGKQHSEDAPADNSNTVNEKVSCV
T4 sequence (P14416 whole entry): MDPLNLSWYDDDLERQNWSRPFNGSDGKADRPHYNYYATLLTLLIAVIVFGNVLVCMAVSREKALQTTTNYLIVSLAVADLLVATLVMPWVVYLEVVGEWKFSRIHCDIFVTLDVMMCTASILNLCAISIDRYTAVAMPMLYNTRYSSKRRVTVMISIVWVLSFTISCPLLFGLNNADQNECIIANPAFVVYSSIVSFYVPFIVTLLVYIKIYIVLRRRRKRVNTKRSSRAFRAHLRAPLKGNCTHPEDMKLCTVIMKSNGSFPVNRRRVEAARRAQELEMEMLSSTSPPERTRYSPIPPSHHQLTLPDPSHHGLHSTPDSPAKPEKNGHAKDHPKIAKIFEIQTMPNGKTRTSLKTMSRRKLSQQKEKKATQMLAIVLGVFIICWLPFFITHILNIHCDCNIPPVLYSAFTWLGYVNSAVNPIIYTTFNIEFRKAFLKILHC

| SMILES | pKi (human D4.4 receptor; [2]) | pKi (human D2short receptor; [2]) | pKi (5-HT2 receptor; [3]) | melting point | pKi (human D2long receptor; [2]) | D2short: [^35S]GTPγS intrinsic activity ([1]; % activity of quinpirol) | pKi (5-HT1A receptor; porcine cortical membranes) | pKi (human D3 receptor; [2]) | Emax [1, 4] | Emax [1, 5] | pKi (human D4.4 receptor; [6]) | pKi (human D2short receptor; [6]) | pKi (5-HT2 receptor; [6]) | pKi (human D2long receptor; [6]) | pKi (5-HT1A receptor; [6]) | pKi (human D3 receptor; [6]) |
| --- | --- | --- | --- | --- | --- | --- | --- | --- | --- | --- | --- | --- | --- | --- | --- | --- |
| ON=Cc1cnn2ccc(OCCCCN3CCN(c4ccccc4Cl)CC3)cc12 [Example E35, (s-cis) 5-[4-[4-(2-Chlorophenyl)piperazin-1-yl]butoxy]pyrazolo[1,5-a]pyridine-3-carbaldehyde oxime] | > 7.52 | > 7.52 | 6.52 to 7.52 | 160 °C | > 7.52 | A (A=Full antagonist (<15%)) | > 7.52 | > 7.52 | – | – | – | – | – | – | – | – |
| Clc1cccc(N2CCN(CCCCOc3ccc4ccnn4c3)CC2)c1Cl [Example E51, 6-[4-[4-(2,3-Dichlorophenyl)piperazin-1-yl]butoxy]pyrazolo[1,5-a]pyridine] | > 7.52 | > 7.52 | 6.52 to 7.52 | 97 °C | > 7.52 | – | 6.52 to 7.52 | > 7.52 | < 15% | – | – | – | – | – | – | – |
| Clc1ccccc1N1CCN(CCCCOc2cccn3nccc23)CC1 [Example E9, 4-[4-[4-(2-Chlorophenyl)piperazin-1-yl]butoxy]pyrazolo[1,5-a]pyridine] | > 7.52 | > 7.52 | 5.52 to 6.52 | 88 °C | > 7.52 | – | > 7.52 | > 7.52 | – | < 15% | – | – | – | – | – | – |
| ON=Cc1cnn2ccc(OCCCCN3CCN(c4ccccc4Cl)CC3)cc12 [Example E32, (s-trans) 5-[4-[4-(2-Chlorophenyl)piperazin-1-yl]butoxy[pyrazolo[1,5-a]pyridine-3-carbaldehyde oxime] | > 7.52 | > 7.52 | 6.52 to 7.52 | 174 °C | > 7.52 | – | > 7.52 | > 7.52 | 15 to 40% | – | – | – | – | – | – | – |
| Clc1cccc(N2CCN(CCCCOc3cc4ccccn4n3)CC2)c1Cl [Example E1, 2-[4-[4-(2,3-Dichlorophenyl)piperazin-1-yl]butoxy]pyrazolo[1,5-a]pyridine] | 6.52 to 7.52 | > 7.52 | 6.52 to 7.52 | 161 °C | > 7.52 | – | > 7.52 | > 7.52 | < 15% | – | 7.48 | 8.00 | 6.82 | 8.03 | 7.77 | 8.46 |
| O=Cc1cnn2ccc(OCCCCN3CCN(c4ccccc4Cl)CC3)cc12 [Example E23, 5-[4-[4-(2-Chlorophenyl)piperazin-1-yl]butoxy]pyrazolo[1,5-a]pyridine-3-carbaldehyde] | > 7.52 | > 7.52 | 5.52 to 6.52 | 116 °C | > 7.52 | – | > 7.52 | > 7.52 | 15 to 40% | – | – | – | – | – | – | – |
| O=Cc1c(OCCCCN2CCN(c3ccccc3Cl)CC2)nn2ccccc12 [Example E6, 2-[4-[4-(2-Chlorophenyl)piperazin-1-yl]butoxy]pyrazolo[1,5-a]pyridine-3-carbaldehyde] | 6.52 to 7.52 | 6.52 to 7.52 | 5.52 to 6.52 | 104 °C | > 7.52 | – | > 7.52 | > 7.52 | – | 15 to 40% | – | – | – | – | – | – |
| O=Cc1c(OCCCCN2CCN(c3cccc(Cl)c3Cl)CC2)nn2ccccc12 [Example E4, 2-[4-[4-(2,3-Dichlorophenyl)piperazin-1-yl]butoxy]pyrazolo[1,5-a]pyridine-3-carbaldehyde] | > 7.52 | > 7.52 | 6.52 to 7.52 | 100 °C | > 7.52 | – | > 7.52 | > 7.52 | 15 to 40% | – | – | – | – | – | – | – |
| O=Cc1cnn2ccc(COCCCN3CCN(c4cccc(Cl)c4Cl)CC3)cc12 [Example E14, 5-[3-[4-(2,3-Dichlorophenyl)piperazin-1-yl]propoxymethyl]pyrazolo[1,5-a]pyridine-3-carbaldehyde] | 6.52 to 7.52 | > 7.52 | 6.52 to 7.52 | 90 °C | > 7.52 | – | > 7.52 | > 7.52 | 15 to 40% | – | – | – | – | – | – | – |
| N#Cc1cnn2ccc(OCCCCN3CCN(c4ccccc4Cl)CC3)cc12 [Example E38, 5-[4-[4-(2-Chlorophenyl)piperazin-1-yl]butoxy]pyrazolo[1,5-a]pyridine-3-carbonitrile] | > 7.52 | > 7.52 | 6.52 to 7.52 | 119 °C | > 7.52 | – | > 7.52 | > 7.52 | 15 to 40% | – | – | – | – | – | – | – |
| Oc1ccc(N2CCN(CCCCOc3ccn4nccc4c3)CC2)cc1 [Example E20, 5-[4-[4-(4-Hydroxyphenyl)piperazin-1-yl]butoxy]pyrazolo[1,5-a]pyridine] | 5.52 to 6.52 | 6.52 to 7.52 | 5.52 to 6.52 | 124 °C | 6.52 to 7.52 | – | < 5.52 | 6.52 to 7.52 | 15 to 40% | – | – | – | – | – | – | – |
| O=Cc1cnn2cc(OCCCCN3CCN(c4ccccc4Cl)CC3)ccc12 [Example E56] | > 7.52 | > 7.52 | 5.52 to 6.52 | 71 °C | > 7.52 | – | > 7.52 | > 7.52 | 15 to 40% | – | – | – | – | – | – | – |
| O=Cc1cnn2cccc(OCCCCN3CCN(c4cccc(Cl)c4Cl)CC3)c12 [Example E10, 4-[4-[4-(2,3-Dichlorophenyl)piperazin-1-yl]butoxy]pyrazolo[1,5-a]pyridine-3-carbaldehyde] | 6.52 to 7.52 | > 7.52 | 6.52 to 7.52 | 128 °C | > 7.52 | – | 6.52 to 7.52 | > 7.52 | – | 15 to 40% | – | – | – | – | – | – |
| Clc1cccc(N2CCN(CCCCOc3cccn4nccc34)CC2)c1Cl [Example E7, 4-[4-[4-(2,3-Dichlorophenyl)piperazin-1-yl]butoxy]pyrazolo[1,5-a]pyridine] | > 7.52 | > 7.52 | 5.52 to 6.52 | 91 °C | > 7.52 | – | 6.52 to 7.52 | > 7.52 | < 15% | – | – | – | – | – | – | – |
